Data reported in ChEMBL document CHEMBL3992523, “Potent Inhibition of Nitric Oxide-Releasing Bifendate Derivatives against Drug-Resistant K562/A02 Cells in Vitro and in Vivo” (J Med Chem, 2017).
pIC50: −log10 of the molar value. The source made the active and inactive calls. No cut-off for these calls is given here.

Columns and labels:
K562 [1] = assay: Anti-proliferative activity against human K562 cells measured after 72 hrs by MTS assay; format: functional, cell-based; conditions: K562, 72 h
K562/A02 [2] = assay: Anti-proliferative activity against P-gp overexpressing/drug resistant human K562/A02 cells measured after 72 hrs by MTS assay; format: functional, cell-based; conditions: K562/A02, 72 h
[3] = Resistant factor, ratio of IC50 for P-gp overexpressing/drug resistant human K562/A02 cells to IC50 for human K562 cells; format: functional
[4] = Permeability in human Caco2 cells assessed as concentration ratio of basolateral to apical side at 100 uM measured at 5 mins post dose by HPLC analysis; format: ADME, cell-based; conditions: caco-2, 5 min
[5] = Permeability in human Caco2 cells assessed as concentration ratio of basolateral to apical side at 100 uM measured at 10 mins post dose by HPLC analysis; format: ADME, cell-based; conditions: caco-2, 10 min
[6] = Drug metabolism in P-gp overexpressing/drug resistant human K562/A02 cells assessed as nitric oxide production at 100 uM measured at 240 mins by Griess assay; format: ADME, cell-based; conditions: k562/a02, 4 h
[7] = Drug metabolism in P-gp overexpressing/drug resistant human K562/A02 cells assessed as nitric oxide production at 100 uM in presence of hemoglobin measured over 30 to 300 mins by Griess assay; format: ADME, cell-based; conditions: k562/a02, 100 µM
K562/A02 [8] = assay: Anti-proliferative activity against P-gp overexpressing/drug resistant human K562/A02 cells assessed as decrease in cell survival at 1 uM in presence of hemoglobin measured after 24 hrs by MTS assay; format: functional, cell-based
[9] = Drug metabolism in P-gp overexpressing/drug resistant human K562/A02 cells assessed as nitric oxide production at 20 uM by DAF-FMDA staining based fluorescent microscopic analysis; format: ADME, cell-based; conditions: k562/a02, 20 µM, TDE = time-dependent effect
[10] = Drug metabolism in P-gp overexpressing/drug resistant human K562/A02 cells assessed as nitric oxide production at 20 uM up to 6 hrs by Griess assay; format: ADME, cell-based; conditions: k562/a02, 6 h
Mus musculus [11] = assay: Toxicity in BALB/c nude mouse assessed as abnormality in eating at 1000 mg/kg, iv measured up to 14 days; format: organism-based; conditions: in vivo, 336 h
Mus musculus [12] = assay: Toxicity in BALB/c nude mouse assessed as abnormality in drinking at 1000 mg/kg, iv measured up to 14 days; format: organism-based; conditions: in vivo, 336 h
Mus musculus [13] = assay: Toxicity in BALB/c nude mouse assessed as change in body weight at 1000 mg/kg, iv measured up to 14 days; format: organism-based; conditions: in vivo, 336 h
K562/A02 [14] = assay: Antitumor activity against P-gp overexpressing/drug resistant human K562/A02 cells xenografted in BALB/c nude mouse assessed as reduction in tumor volume at 120 mg/kg, iv administered every other day for 21 days measured every other day during dosing; format: functional, organism-based
K562/A02 [15] = assay: Antitumor activity against P-gp overexpressing/drug resistant human K562/A02 cells xenografted in BALB/c nude mouse assessed as reduction in tumor weight at 120 mg/kg, iv administered every other day for 21 days measured post last dose; format: functional, organism-based
K562/A02 [16] = assay: Antitumor activity against P-gp overexpressing/drug resistant human K562/A02 cells xenografted in BALB/c nude mouse assessed as tumor growth inhibition at 120 mg/kg, iv administered every other day for 21 days measured post last dose relative to control; format: functional; conditions: 504 h, read-out: TGI
K562/A02 [17] = assay: Effect on P-gp expression in P-gp overexpressing/drug resistant human K562/A02 cells up to 8 uM by Western blot analysis; format: functional, cell-based
K562/A02 [18] = assay: Effect on P-gp expression in P-gp overexpressing/drug resistant human K562/A02 cells up to 8 uM by RT-PCR method; format: functional, cell-based
Homo sapiens [19] = organism: Homo sapiens; assay: Inhibition of P-gp in human K562/A02 cells assessed as increase in intracellular rhodamine123 accumulation at 0.33 to 10 uM measured after 1 hr by flow cytometry; format: cell-based
K562 [20] = assay: Effect on rhodamine123 accumulation in human K562 cells at 0.33 to 10 uM measured after 1 hr by flow cytometry; format: functional, cell-based
Homo sapiens [21] = organism: Homo sapiens; assay: Effect on P-gp ATPase activity in human K562/A02 cell membranes assessed as remaining ATP level by measuring relative light units at 40 uM in presence of MgATP measured after 40 mins by luminescence based P-gp-Glo assay (reference value: 216508 +/- 7426 RLU)
Homo sapiens [22] = organism: Homo sapiens; assay: Inhibition of NF-kappaB phosphorylation in human K562/A02 cells at 2 uM in presence of hemoglobin measured after 24 hrs by Western blot analysis; format: cell-based
K562/A02 [23] = assay: Induction of nitration of mitochondrial cytochrome c in P-gp overexpressing/drug resistant human K562/A02 cells at 10 uM measured after 24 hrs by Western blot analysis; format: functional, cell-based
K562/A02 [24] = assay: Induction of nitration of mitochondrial cytochrome c in P-gp overexpressing/drug resistant human K562/A02 cells at 10 uM in presence of hemoglobin measured after 24 hrs by Western blot analysis; format: functional, cell-based
Mus musculus [25] = assay: Induction of nitration of mitochondrial cytochrome c in tumor of iv dosed BALB/c nude mouse xenografted with P-gp overexpressing/drug resistant human K562/A02 cells administered every other day for 21 days by Western blot analysis; format: functional, organism-based
Homo sapiens [26] = organism: Homo sapiens; assay: Induction of nitration of P-gp in P-gp overexpressing/drug resistant human K562/A02 cells at 10 uM measured after 24 hrs by Western blot analysis
Homo sapiens [27] = organism: Homo sapiens; assay: Induction of nitration of P-gp in P-gp overexpressing/drug resistant human K562/A02 cells at 10 uM in presence of hemoglobin measured after 24 hrs by Western blot analysis
K562/A02 [28] = assay: Down regulation of HIF-alpha expression in P-gp overexpressing/drug resistant human K562/A02 cells at 8 uM after 24 hrs by Western blot analysis; format: functional, cell-based
Homo sapiens [29] = organism: Homo sapiens; assay: Inhibition of NF-kappaB phosphorylation in P-gp overexpressing/drug resistant human K562/A02 cells at 8 uM after 24 hrs by Western blot analysis
[30] = target: RAC-alpha serine/threonine-protein kinase (Homo sapiens) (UniProt P31749); assay: Inhibition of AKT phosphorylation in P-gp overexpressing/drug resistant human K562/A02 cells at 8 uM after 24 hrs by Western blot analysis
Homo sapiens [31] = organism: Homo sapiens; assay: Inhibition of ERK phosphorylation in P-gp overexpressing/drug resistant human K562/A02 cells at 8 uM after 24 hrs by Western blot analysis
K562/A02 [32] = assay: Down regulation of HIF-alpha expression in P-gp overexpressing/drug resistant human K562/A02 cells at 1 uM measured after 48 hrs by Western blot analysis; format: functional, cell-based
Homo sapiens [33] = organism: Homo sapiens; assay: Inhibition of NF-kappaB phosphorylation in human K562/A02 cells at 1 uM measured after 48 hrs by Western blot analysis; format: cell-based
[34] = target: RAC-alpha serine/threonine-protein kinase (Homo sapiens) (UniProt P31749); assay: Inhibition of AKT phosphorylation in human K562/A02 cells at 1 uM measured after 48 hrs by Western blot analysis; format: cell-based
Homo sapiens [35] = organism: Homo sapiens; assay: Inhibition of ERK phosphorylation in human K562/A02 cells at 1 uM measured after 48 hrs by Western blot analysis; format: cell-based
K562/A02 [36] = assay: Down regulation of HIF-alpha expression in human K562/A02 cells at 2 uM in presence of hemoglobin measured after 24 hrs by Western blot analysis; format: functional, cell-based
[37] = target: RAC-alpha serine/threonine-protein kinase (Homo sapiens) (UniProt P31749); assay: Inhibition of AKT phosphorylation in human K562/A02 cells at 2 uM in presence of hemoglobin measured after 24 hrs by Western blot analysis; format: cell-based
Homo sapiens [38] = organism: Homo sapiens; assay: Inhibition of ERK phosphorylation in human K562/A02 cells at 2 uM in presence of hemoglobin measured after 24 hrs by Western blot analysis; format: cell-based
Mus musculus [39] = assay: Toxicity in BALB/c nude mouse assessed as effect on survival at 1000 mg/kg, iv measured up to 14 days; format: organism-based; conditions: in vivo, 336 h
Mus musculus [40] = assay: Toxicity in P-gp overexpressing/drug resistant human K562/A02 cells xenografted BALB/c nude mouse assessed as change in body weight at 120 mg/kg, iv administered every other day for 21 days measured on day 2,4,6,8,10,12,14,16,18,20,22 of dosing; format: organism-based; conditions: in vivo, 504 h

Chain of RAC-alpha serine/threonine-protein kinase (Homo sapiens) (P31749 whole entry): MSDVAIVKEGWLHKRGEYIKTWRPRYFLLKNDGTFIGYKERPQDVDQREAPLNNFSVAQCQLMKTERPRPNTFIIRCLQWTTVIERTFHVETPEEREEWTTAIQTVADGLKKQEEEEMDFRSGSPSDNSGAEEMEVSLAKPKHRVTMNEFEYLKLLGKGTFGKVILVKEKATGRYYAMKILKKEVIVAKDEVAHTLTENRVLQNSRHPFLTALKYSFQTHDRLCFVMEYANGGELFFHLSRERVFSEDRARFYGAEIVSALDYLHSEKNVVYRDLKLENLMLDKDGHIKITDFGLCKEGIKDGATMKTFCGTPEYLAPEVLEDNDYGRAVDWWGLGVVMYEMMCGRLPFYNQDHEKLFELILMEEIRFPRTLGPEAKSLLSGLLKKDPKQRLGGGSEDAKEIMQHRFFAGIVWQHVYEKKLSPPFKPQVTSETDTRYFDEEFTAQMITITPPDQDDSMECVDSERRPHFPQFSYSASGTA

COC(=O)c1cc(OC)c2c(c1-c1c(C(=O)OC3CCN(CC(=O)OCCCCOc4no[n+]([O-])c4S(=O)(=O)c4ccccc4)CC3)cc(OC)c3c1OCO3)OCO2
pIC50 (K562 [1]): 6.16
pIC50 (K562/A02 [2]): 6.26
Ratio IC50 [3]: 0.8
Ratio [4]: 0.14
Ratio [5]: 0.53
Drug metabolism [6]: Metabolite_Detected
Drug metabolism [7]: Metabolite_Notdetected
Activity (K562/A02 [8]): inactive
Drug metabolism [9]: Tde
Drug metabolism [10]: Metabolite_Detected
Activity (Mus musculus [11]): Non-Toxic
Activity (Mus musculus [12]): Non-Toxic
Activity (Mus musculus [13]): Non-Toxic
Activity (K562/A02 [14]): Active
Activity (K562/A02 [15]): Active
inhibition in vivo at 120 mg/kg (K562/A02 [16]): 51.4%
Activity (K562/A02 [17]): inactive
Activity (K562/A02 [18]): inactive
inhibition (Homo sapiens [19]): Active
Activity (K562 [20]): inactive
Activity (Homo sapiens [21]): 241000 RLU
inhibition (Homo sapiens [22]): inactive
Activity (K562/A02 [23]): Active
Activity (K562/A02 [24]): inactive
Activity (Mus musculus [25]): Dose-dependent effect
Activity (Homo sapiens [26]): Active
Activity (Homo sapiens [27]): inactive
Activity (K562/A02 [28]): Active
inhibition (Homo sapiens [29]): Active
inhibition [30]: Active
inhibition (Homo sapiens [31]): Active
Activity (K562/A02 [32]): Active
inhibition (Homo sapiens [33]): Active
inhibition [34]: Active
inhibition (Homo sapiens [35]): Active
Activity (K562/A02 [36]): inactive
inhibition [37]: inactive
inhibition (Homo sapiens [38]): inactive
Activity (Mus musculus [39]): Non-Toxic
Activity (Mus musculus [40]): Non-Toxic
